Tests used:
Assay type in all cases: biochemical
JAK3 = molecular target: T1, JAK3 (Homo sapiens, UniProt P52333); assay: JAK enzymatic assay (peptide mobility shift), JAK3; conditions: recombinant JAK3 1 nM, ATP 4 μM, 1 μM JAKtide peptide, 90 minutes
T1 construct: purchased Invitrogen Corporation, Madison, Wis; PV3855
T1 sequence (P52333 1-1124): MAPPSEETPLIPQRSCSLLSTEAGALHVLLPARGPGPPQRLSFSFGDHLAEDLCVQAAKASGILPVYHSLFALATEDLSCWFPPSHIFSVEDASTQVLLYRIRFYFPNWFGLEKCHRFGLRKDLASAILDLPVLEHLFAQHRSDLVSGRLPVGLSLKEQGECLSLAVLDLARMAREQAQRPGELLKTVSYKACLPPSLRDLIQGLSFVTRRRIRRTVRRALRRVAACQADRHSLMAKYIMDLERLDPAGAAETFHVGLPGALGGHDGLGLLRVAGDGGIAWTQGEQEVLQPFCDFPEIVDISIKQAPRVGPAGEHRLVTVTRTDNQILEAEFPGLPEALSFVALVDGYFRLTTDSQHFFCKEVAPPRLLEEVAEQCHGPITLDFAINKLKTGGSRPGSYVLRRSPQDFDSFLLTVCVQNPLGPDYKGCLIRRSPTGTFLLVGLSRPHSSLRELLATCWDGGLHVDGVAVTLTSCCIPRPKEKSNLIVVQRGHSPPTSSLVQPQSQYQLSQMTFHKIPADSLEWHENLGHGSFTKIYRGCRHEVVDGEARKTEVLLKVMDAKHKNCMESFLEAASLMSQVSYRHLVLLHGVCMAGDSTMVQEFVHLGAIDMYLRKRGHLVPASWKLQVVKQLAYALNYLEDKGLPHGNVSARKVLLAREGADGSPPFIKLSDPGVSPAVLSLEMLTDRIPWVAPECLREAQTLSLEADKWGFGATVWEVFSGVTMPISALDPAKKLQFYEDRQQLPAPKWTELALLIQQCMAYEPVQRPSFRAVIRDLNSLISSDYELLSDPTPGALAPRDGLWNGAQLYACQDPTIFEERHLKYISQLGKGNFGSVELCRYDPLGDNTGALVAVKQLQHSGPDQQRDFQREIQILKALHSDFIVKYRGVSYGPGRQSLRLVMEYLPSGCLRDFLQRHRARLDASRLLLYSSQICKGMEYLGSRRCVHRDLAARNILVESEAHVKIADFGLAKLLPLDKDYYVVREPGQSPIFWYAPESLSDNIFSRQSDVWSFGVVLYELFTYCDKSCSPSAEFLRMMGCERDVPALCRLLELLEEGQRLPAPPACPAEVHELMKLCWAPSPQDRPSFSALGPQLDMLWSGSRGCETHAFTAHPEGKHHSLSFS
Excerpt: Recombinant JAK1 (Catalog Number PV4775), JAK2 (Catalog Number PV4210) and JAK3 (Catalog Number PV3855) were purchased from (Invitrogen Corporation, Madison, Wis.). Tyk2 (His-Tyk2 (888-1182, C936S, C1142S)) used in this study was expressed and purified at Pfizer Laboratories. Adenosine 5′-triphosphate (ATP) was obtained from (Sigma Chemical Company, St. Louis, Mo.). […] Coating Reagent 3 was purchased from (Caliper Life Sciences, Hopkinton, Mass.).
(§1) A peptide mobility shift assay was used to quantify the phosphorylation of the JAKtide (JAK2 and JAK3) or the IRS-1 peptide ([…] and Tyk2). Reactions were carried out in a 384-well plate (Matrical MP-101) in a 10 μL total volume. Reaction mixtures contained 20 mM HEPES, pH 7.4, 10 mM magnesium chloride, 0.01% bovine serum albumin (BSA), 0.0005% Tween-20, ATP (4 μM for JAK2 and JAK3, 40 μM for JAK1 and 7 μM for Tyk2)), 2% DMSO and 1 μM peptide substrate (JAKtide for JAK2 and JAK3 and IRS-1 peptide for JAK1 and Tyk2). Compounds were diluted serially in 100% dimethyl sulfoxide and tested in an 11 point dose response in duplicate or quadruplicate (200 nl of compound/DMSO was added per 10 μL reaction). The reactions were initiated by the addition of enzyme to the final concentration of 2 nM JAK2, 1 nM JAK3, 12 nM Tyk2 or 20 nM JAK1. The assay was run for 240 minutes for JAK1, 150 minutes for JAK2, 90 minutes for JAK3 and 70 minutes for Tyk2. The assays were stopped at the specified times with 20 uL of 140 mM HEPES, 22.5 mM EDTA and 0.15% Coating Reagent 3. The plates were placed on a LabChip 3000 (LC3000) instrument from (Caliper Life Sciences) to measure the formation of phosphorylated peptide. Data was analyzed using Hits Well Analyzer Software from (Caliper Life Sciences) to obtain the amount of product formed.
(§2) Data was then imported into an internal application where each data point is expressed as % inhibition based on uninhibited and no enzyme controls. Dose-response data is then fit using a 4 parameter logistic equation (Equation 1) to determine an IC50.
(§3) Where max is the fitted uninhibited value, min is the fitted complete inhibition value, and s is the slope factor.

JAK2 = molecular target: T2, JAK2 (Homo sapiens, UniProt O60674); assay: JAK enzymatic assay (peptide mobility shift), JAK2; conditions: recombinant JAK2 2 nM, ATP 4 μM, 1 μM JAKtide peptide, 150 minutes
T2 construct: purchased Invitrogen Corporation, Madison, Wis; PV4210
Excerpt: (§4) Recombinant JAK1 (Catalog Number PV4775), JAK2 (Catalog Number PV4210) and JAK3 (Catalog Number PV3855) were purchased from (Invitrogen Corporation, Madison, Wis.). Tyk2 (His-Tyk2 (888-1182, C936S, C1142S)) used in this study was expressed and purified at Pfizer Laboratories. Adenosine 5′-triphosphate (ATP) was obtained from (Sigma Chemical Company, St. Louis, Mo.). The JAKtide peptide (peptide sequence, FITC-[…]) used for the JAK2 and JAK3 assays and the IRS-1 peptide (peptide sequence, 5-FAM-[…]) used for the JAK1 and Tyk2 assays were purchased from (American Peptide Company, Sunnyvale, Calif.). Coating Reagent 3 was purchased from (Caliper Life Sciences, Hopkinton, Mass.).
as §1, §2, §3

JAK1 = molecular target: T3, JAK1 (Homo sapiens, UniProt P23458); assay: JAK enzymatic assay (peptide mobility shift), JAK1; conditions: recombinant JAK1 20 nM, ATP 40 μM, 1 μM IRS-1 peptide, 240 minutes
T3 construct: purchased Invitrogen Corporation, Madison, Wis; PV4775
Excerpt: as §4, §1, §2, §3

T3 sequence (P23458 whole entry): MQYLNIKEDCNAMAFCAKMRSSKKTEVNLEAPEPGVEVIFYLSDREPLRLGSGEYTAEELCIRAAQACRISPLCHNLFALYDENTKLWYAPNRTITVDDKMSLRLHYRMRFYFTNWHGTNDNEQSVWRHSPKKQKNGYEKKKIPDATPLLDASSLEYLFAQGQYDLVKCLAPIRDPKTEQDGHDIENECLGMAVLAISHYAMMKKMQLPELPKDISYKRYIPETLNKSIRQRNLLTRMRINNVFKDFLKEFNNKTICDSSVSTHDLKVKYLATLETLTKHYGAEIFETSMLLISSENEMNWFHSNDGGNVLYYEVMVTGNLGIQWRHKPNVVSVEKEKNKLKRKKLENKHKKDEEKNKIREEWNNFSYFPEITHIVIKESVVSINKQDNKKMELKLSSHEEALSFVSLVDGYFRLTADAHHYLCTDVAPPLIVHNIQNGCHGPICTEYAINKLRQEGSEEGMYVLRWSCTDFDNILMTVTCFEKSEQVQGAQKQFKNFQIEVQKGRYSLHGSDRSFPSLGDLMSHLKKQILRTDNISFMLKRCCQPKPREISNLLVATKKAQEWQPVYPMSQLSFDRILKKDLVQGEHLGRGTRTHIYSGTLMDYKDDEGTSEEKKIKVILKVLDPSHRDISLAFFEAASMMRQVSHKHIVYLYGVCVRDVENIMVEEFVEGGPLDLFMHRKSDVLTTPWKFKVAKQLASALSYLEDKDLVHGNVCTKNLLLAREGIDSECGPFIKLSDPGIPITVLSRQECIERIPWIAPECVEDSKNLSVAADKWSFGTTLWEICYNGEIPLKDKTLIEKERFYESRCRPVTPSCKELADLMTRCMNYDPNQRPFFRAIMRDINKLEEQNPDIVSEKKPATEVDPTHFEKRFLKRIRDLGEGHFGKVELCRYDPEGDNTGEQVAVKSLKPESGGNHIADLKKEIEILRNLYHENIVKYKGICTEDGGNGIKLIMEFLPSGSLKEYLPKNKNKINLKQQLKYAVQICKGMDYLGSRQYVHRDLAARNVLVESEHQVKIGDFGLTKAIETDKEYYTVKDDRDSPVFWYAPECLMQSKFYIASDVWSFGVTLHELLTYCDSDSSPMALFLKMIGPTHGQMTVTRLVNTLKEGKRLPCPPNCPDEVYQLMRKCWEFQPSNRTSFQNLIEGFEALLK
T2 sequence (O60674 whole entry): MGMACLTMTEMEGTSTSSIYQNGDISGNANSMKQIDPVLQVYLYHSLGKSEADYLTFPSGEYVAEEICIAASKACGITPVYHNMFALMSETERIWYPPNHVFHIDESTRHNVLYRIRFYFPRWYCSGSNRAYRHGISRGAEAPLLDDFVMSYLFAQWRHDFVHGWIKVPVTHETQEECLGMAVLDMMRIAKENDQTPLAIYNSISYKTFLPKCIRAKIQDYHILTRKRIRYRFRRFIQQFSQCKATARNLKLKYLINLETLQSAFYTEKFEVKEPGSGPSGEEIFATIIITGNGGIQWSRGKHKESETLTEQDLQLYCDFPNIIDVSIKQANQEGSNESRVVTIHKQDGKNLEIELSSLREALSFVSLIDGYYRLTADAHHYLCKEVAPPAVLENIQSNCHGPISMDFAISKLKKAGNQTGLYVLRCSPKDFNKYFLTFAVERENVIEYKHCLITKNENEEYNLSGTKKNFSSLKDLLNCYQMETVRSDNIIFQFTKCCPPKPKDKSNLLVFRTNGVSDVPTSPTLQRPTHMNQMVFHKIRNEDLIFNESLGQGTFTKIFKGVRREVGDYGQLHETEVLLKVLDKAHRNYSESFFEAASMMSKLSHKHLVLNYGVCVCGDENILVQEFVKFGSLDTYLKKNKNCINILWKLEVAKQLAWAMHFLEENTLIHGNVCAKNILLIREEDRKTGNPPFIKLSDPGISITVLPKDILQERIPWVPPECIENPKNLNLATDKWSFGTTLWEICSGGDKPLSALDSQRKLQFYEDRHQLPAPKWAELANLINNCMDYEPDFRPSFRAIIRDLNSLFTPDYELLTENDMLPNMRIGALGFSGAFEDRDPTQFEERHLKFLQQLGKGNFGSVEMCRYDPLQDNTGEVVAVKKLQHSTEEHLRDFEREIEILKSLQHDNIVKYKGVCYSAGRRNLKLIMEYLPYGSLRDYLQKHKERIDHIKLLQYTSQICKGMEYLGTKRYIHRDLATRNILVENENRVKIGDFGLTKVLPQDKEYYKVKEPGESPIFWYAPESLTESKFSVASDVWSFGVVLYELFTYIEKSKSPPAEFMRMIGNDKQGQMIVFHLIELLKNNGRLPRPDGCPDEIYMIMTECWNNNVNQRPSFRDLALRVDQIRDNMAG

Compound: COc1ccc(CNS(=O)(=O)C[C@H]2CC[C@H](N(C)c3ncnc4[nH]ccc34)CC2)cc1 [Example 18, N-(4-methoxybenzyl)-1-{trans-4-[methyl(7H-pyrrolo[2,3-d]-pyrimidin-4-yl)amino]-cyclo-hexyl}methanesulfonamide]
- IC50 (JAK3): 175 nM
- IC50 (JAK2): 27.5 nM
- IC50 (JAK1): 21.3 nM

Compound: CN(c1ncnc2[nH]ccc12)[C@H]1CC[C@H](CS(=O)(=O)NCCc2ccc(Cl)c(Cl)c2)CC1 [Example 42, N-[2-(3,4-dichlorophenyl)-ethyl]-1-{trans-4-[methyl-(7H-pyrrolo[2,3-d]pyrimidin-4-yl)amino]cyclohexyl}-methanesulfonamide]
- IC50 (JAK3): 427 nM
- IC50 (JAK2): 55.7 nM
- IC50 (JAK1): 14.5 nM

Compound: COc1ccccc1CCCNS(=O)(=O)C[C@H]1CC[C@H](N(C)c2ncnc3[nH]ccc23)CC1 [Example 40, N-[3-(2-methoxyphenyl)-propyl]-1-{trans-4-[methyl(7H-pyrrolo[2,3-d]-pyrimidin-4-yl)amino]-cyclohexyl}-methanesulfonamide]
- IC50 (JAK3): 208 nM
- IC50 (JAK2): 29.8 nM
- IC50 (JAK1): 10.7 nM

Compound: CN(c1ncnc2[nH]ccc12)[C@H]1CC[C@H](CS(=O)(=O)Nc2ccc3[nH]ncc3c2)CC1 [Example 26, N-1H-indazol-5-yl-1-{trans-4-[methyl(7H-pyrrolo[2,3-d]pyrimidin-4-yl)amino]-cyclohexyl}-methanesulfonamide]
- IC50 (JAK3): 175 nM
- IC50 (JAK2): 39.4 nM
- IC50 (JAK1): 19 nM

Compound: CN(C)S(=O)(=O)C[C@H]1CC[C@H](N(C)c2ncnc3[nH]ccc23)CC1 [Example 57, N,N-dimethyl((1r,4r)-4-(methyl(7H-pyrrolo[2,3-d]pyrimidin-4-yl)amino)-cyclohexyl)-methanesulfonamide]
- IC50 (JAK3): 174 nM
- IC50 (JAK2): 27.5 nM
- IC50 (JAK1): 7.33 nM

Compound: CN(Cc1cnccn1)S(=O)(=O)C[C@H]1CC[C@H](N(C)c2ncnc3[nH]ccc23)CC1 [Example 43, N-methyl-1-{trans-4-[methyl(7H-pyrrolo[2,3-d]-pyrimidin-4-yl)amino]-cyclohexyl}-N-(pyrazin-2-ylmethyl)-methanesulfonamide]
- IC50 (JAK3): 517 nM
- IC50 (JAK2): 53.2 nM
- IC50 (JAK1): 14.9 nM

Compound: CN(c1ncnc2[nH]ccc12)[C@H]1CC[C@H](CS(=O)(=O)N[C@H]2C[C@@H]2c2ccccc2)CC1 [Example 32, 1-{trans-4-[methyl(7H-pyrrolo[2,3-d]pyrimidin-4-yl)amino]cyclohexyl}-N-[(1S,2R)-2-phenylcyclopropyl]-methanesulfonamide]
- IC50 (JAK3): 144 nM
- IC50 (JAK2): 23.6 nM
- IC50 (JAK1): 4.34 nM

Compound: CN(c1ncnc2[nH]ccc12)[C@H]1CC[C@H](CS(=O)(=O)NCC(C)(F)c2cccc(F)c2)CC1 (stereo partly drawn) [Example 9, N-[2-fluoro-2-(3-fluoro-phenyl)propyl]-1-{trans-4-[methyl(7H-pyrrolo[2,3-d]-pyrimidin-4-yl)amino]-cyclohexyl}-methanesulfonamide]
- IC50 (JAK3): 531 nM
- IC50 (JAK2): 39.7 nM
- IC50 (JAK1): 10.5 nM

Compound: CN(c1ncnc2[nH]ccc12)[C@H]1CC[C@H](CS(=O)(=O)Nc2ccc(Cl)nc2)CC1 [Example 25, N-(6-chloropyridin-3-yl)-1-{trans-4-[methyl(7H-pyrrolo[2,3-d]pyrimidin-4-yl)-amino]cyclohexyl}-methanesulfonamide]
- IC50 (JAK3): 228 nM
- IC50 (JAK2): 57.4 nM
- IC50 (JAK1): 18.6 nM

Compound: Cc1cnc(CNS(=O)(=O)C[C@H]2CC[C@H](N(C)c3ncnc4[nH]ccc34)CC2)cn1 [Example 45, N-[(5-methylpyrazin-2-yl)methyl]-1-{trans-4-[methyl(7H-pyrrolo[2,3-d]-pyrimidin-4-yl)amino]cyclohexyl}-methanesulfonamide]
- IC50 (JAK3): 490 nM
- IC50 (JAK2): 49.7 nM
- IC50 (JAK1): 15.3 nM

Compound: CN(c1ncnc2[nH]ccc12)[C@H]1CC[C@H](CS(=O)(=O)NCCc2ccc(S(N)(=O)=O)cc2)CC1 [Example 2, 4-(2-{[({trans-4-[methyl(7H-pyrrolo[2,3-d]pyrimidin-4-yl)amino]cyclohexyl}methyl)sulfonyl]amino}ethyl)benzene-sulfonamide]
- IC50 (JAK3): 166 nM
- IC50 (JAK2): 14.9 nM
- IC50 (JAK1): 1.82 nM

Compound: CN(c1ncnc2[nH]ccc12)[C@H]1CC[C@H](CS(=O)(=O)NC2CC(NC(=O)OC(C)(C)C)C2)CC1 (stereo partly drawn) [Example 41, tert-butyl (3-{[({trans-4-[methyl(7H-pyrrolo[2,3-d]-pyrimidin-4-yl)amino]-cyclohexyl}methyl)sulfonyl]amino}cyclobutyl)-carbamate]
- IC50 (JAK3): 292 nM
- IC50 (JAK2): 123 nM
- IC50 (JAK1): 11.6 nM

Compound: CN(c1ncnc2[nH]ccc12)[C@H]1CC[C@H](CS(=O)(=O)NCC(F)c2ccc(F)cc2)CC1 (stereo partly drawn) [Example 11, N-[2-fluoro-2-(4-fluoro-phenyl)ethyl]-1-{trans-4-[methyl(7H-pyrrolo[2,3-d]-pyrimidin-4-yl)amino]-cyclohexyl}-methanesulfonamide]
- IC50 (JAK3): 424 nM
- IC50 (JAK2): 61.9 nM
- IC50 (JAK1): 13.5 nM

Compound: Cc1ccc(NS(=O)(=O)C[C@H]2CC[C@H](N(C)c3ncnc4[nH]ccc34)CC2)cn1 [Example 30, N-(6-methylpyridin-3-yl)-1-{trans-4-[methyl(7H-pyrrolo[2,3-d]pyrimidin-4-yl)amino]cyclohexyl}-methanesulfonamide]
- IC50 (JAK3): 221 nM
- IC50 (JAK2): 47.6 nM
- IC50 (JAK1): 16.5 nM

Compound: CC(C)c1ccc(CCNS(=O)(=O)C[C@H]2CC[C@H](N(C)c3ncnc4[nH]ccc34)CC2)c(F)c1 [Example 38, N-[2-(2-fluoro-4-isopropylphenyl)ethyl]-1-{trans-4-[methyl(7H-pyrrolo[2,3-d]pyrimidin-4-yl)amino]cyclohexyl}-methanesulfonamide]
- IC50 (JAK3): 145 nM
- IC50 (JAK2): 55.4 nM
- IC50 (JAK1): 9.13 nM

Compound: CN(c1ncnc2[nH]ccc12)[C@H]1CC[C@H](CS(=O)(=O)NCCc2ccc(C(F)(F)F)cc2F)CC1 [Example 13, N-{2-[2-fluoro-4-(trifluoro-methyl)phenyl]ethyl}-1-{trans-4-[methyl(7H-pyrrolo[2,3-d]pyrimidin-4-yl)amino]cyclohexyl}-methanesulfonamide]
- IC50 (JAK2): 55.3 nM
- IC50 (JAK1): 17.4 nM

— patent publication US8372854B2, “Pyrrolo[2,3-D]pyrimidine compounds” (Pfizer Inc., priority 2009, dated 2013)
